Experiments:
Experiment in all cases: KINOMEscan kinase binding assay
[1] = target: T1, 384 kinases from the human genome (Homo sapiens, UniProt Q13237); conditions: kinase PRKG2 (Entrez PRKG2)
T1 construct: purchased Eurofin/DiscoverX
Outline: (§1)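 A panel of 384 human kinases was profiled by KINOMEscan binding in the presence of 10 µM compound. Kinase–ligand binding was given as percent of DMSO control, averaged from duplicates in a single run, with an S(10) selectivity score.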

[2] = target: T2, 384 kinases from the human genome (Homo sapiens, UniProt Q8TD08); conditions: kinase ERK8 (Entrez MAPK15)
T2 construct: purchased Eurofin/DiscoverX
Outline: as §1

[3] = target: T3, 384 kinases from the human genome (Homo sapiens, UniProt P42336); conditions: kinase PIK3CA (Entrez PIK3CA)
T3 construct: purchased Eurofin/DiscoverX
Outline: as §1

[4] = target: T4, 384 kinases from the human genome (Homo sapiens, UniProt Q00535); conditions: kinase CDK5 (Entrez CDK5)
T4 construct: purchased Eurofin/DiscoverX
Outline: as §1

[5] = target: T5, 384 kinases from the human genome (Homo sapiens, UniProt Q9NRM7); conditions: kinase LATS2 (Entrez LATS2)
T5 construct: purchased Eurofin/DiscoverX
Outline: as §1

[6] = target: T6, 384 kinases from the human genome (Homo sapiens, UniProt Q92630); conditions: kinase DYRK2 (Entrez DYRK2)
T6 construct: purchased Eurofin/DiscoverX
T6 sequence (Q92630 whole entry): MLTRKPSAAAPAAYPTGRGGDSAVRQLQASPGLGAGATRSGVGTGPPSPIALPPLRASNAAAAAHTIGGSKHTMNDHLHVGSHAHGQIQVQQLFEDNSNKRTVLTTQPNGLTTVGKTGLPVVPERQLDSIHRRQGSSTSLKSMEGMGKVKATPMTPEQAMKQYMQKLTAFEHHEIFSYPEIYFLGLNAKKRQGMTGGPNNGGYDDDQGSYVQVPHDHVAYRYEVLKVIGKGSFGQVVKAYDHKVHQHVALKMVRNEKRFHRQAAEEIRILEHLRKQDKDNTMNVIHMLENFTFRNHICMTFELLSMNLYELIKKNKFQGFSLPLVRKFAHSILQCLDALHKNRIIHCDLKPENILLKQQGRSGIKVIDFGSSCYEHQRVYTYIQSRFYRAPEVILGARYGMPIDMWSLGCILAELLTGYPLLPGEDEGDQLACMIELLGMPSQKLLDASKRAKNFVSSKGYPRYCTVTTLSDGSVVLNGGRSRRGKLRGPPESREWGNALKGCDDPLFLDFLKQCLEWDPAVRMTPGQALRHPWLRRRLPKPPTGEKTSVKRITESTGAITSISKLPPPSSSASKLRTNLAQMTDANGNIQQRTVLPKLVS
Outline: as §1

[7] = target: T7, 384 kinases from the human genome (Homo sapiens, UniProt Q9Y2U5); conditions: kinase MAP3K2 (Entrez MAP3K2)
T7 construct: purchased Eurofin/DiscoverX
Outline: as §1

[8] = target: T8, 384 kinases from the human genome (Homo sapiens, UniProt Q13523); conditions: kinase PRP4 (Entrez PRPF4B)
T8 construct: purchased Eurofin/DiscoverX
Outline: as §1

[9] = target: T9, 384 kinases from the human genome (Homo sapiens, UniProt O43683); conditions: kinase BUB1 (Entrez BUB1)
T9 construct: purchased Eurofin/DiscoverX
Outline: as §1

[10] = target: T10, 384 kinases from the human genome (Homo sapiens, UniProt P0C264); conditions: kinase SgK110 (Entrez SgK110)
T10 construct: purchased Eurofin/DiscoverX
Outline: as §1

[11] = target: T11, 384 kinases from the human genome (Homo sapiens, UniProt P48730); conditions: kinase CSNK1D (Entrez CSNK1D)
T11 construct: purchased Eurofin/DiscoverX
Outline: as §1

[12] = target: T12, 384 kinases from the human genome (Homo sapiens, UniProt Q8NFD2); conditions: kinase ANKK1 (Entrez ANKK1)
T12 construct: purchased Eurofin/DiscoverX
Outline: as §1

[13] = target: T13, 384 kinases from the human genome (Homo sapiens, UniProt Q9Y6M4); conditions: kinase CSNK1G3 (Entrez CSNK1G3)
T13 construct: purchased Eurofin/DiscoverX
Outline: as §1

[14] = target: T14, 384 kinases from the human genome (Homo sapiens, UniProt Q00536); conditions: kinase PCTK1 (Entrez CDK16)
T14 construct: purchased Eurofin/DiscoverX
Outline: as §1

[15] = target: T15, 384 kinases from the human genome (Homo sapiens, UniProt P09619)
T15 construct: purchased Eurofin/DiscoverX
T15 sequence (P09619 33-1106): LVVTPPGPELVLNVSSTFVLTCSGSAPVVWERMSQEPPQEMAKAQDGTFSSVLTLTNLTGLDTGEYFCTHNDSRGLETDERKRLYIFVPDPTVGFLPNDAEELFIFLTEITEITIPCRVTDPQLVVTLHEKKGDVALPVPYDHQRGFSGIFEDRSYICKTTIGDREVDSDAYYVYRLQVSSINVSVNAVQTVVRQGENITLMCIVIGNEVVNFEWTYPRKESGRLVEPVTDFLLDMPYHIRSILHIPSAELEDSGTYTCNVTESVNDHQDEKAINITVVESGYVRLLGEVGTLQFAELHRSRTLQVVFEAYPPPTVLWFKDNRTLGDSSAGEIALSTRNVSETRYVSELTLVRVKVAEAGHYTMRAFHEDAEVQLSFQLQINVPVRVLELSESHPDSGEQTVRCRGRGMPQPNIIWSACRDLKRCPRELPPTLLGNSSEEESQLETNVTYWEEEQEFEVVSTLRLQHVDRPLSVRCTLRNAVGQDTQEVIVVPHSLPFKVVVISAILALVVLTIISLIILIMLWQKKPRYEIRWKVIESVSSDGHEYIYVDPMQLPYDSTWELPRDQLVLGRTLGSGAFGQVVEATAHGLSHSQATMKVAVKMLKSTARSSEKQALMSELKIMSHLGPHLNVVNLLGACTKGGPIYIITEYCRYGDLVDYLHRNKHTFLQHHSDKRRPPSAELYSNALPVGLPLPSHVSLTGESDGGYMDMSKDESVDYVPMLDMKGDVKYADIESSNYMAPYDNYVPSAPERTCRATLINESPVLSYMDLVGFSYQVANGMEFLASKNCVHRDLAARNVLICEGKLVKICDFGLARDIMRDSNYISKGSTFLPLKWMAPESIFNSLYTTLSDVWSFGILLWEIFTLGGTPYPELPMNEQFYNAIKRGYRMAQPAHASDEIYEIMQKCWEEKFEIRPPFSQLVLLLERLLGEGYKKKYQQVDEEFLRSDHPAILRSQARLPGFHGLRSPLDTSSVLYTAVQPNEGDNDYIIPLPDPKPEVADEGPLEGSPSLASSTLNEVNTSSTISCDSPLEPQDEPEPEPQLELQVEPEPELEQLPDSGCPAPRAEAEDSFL
Outline: as §1

[16] = target: T16, 384 kinases from the human genome (Homo sapiens, UniProt Q96J92); conditions: kinase WNK4 (Entrez WNK4)
T16 construct: purchased Eurofin/DiscoverX
T16 sequence (Q96J92 whole entry): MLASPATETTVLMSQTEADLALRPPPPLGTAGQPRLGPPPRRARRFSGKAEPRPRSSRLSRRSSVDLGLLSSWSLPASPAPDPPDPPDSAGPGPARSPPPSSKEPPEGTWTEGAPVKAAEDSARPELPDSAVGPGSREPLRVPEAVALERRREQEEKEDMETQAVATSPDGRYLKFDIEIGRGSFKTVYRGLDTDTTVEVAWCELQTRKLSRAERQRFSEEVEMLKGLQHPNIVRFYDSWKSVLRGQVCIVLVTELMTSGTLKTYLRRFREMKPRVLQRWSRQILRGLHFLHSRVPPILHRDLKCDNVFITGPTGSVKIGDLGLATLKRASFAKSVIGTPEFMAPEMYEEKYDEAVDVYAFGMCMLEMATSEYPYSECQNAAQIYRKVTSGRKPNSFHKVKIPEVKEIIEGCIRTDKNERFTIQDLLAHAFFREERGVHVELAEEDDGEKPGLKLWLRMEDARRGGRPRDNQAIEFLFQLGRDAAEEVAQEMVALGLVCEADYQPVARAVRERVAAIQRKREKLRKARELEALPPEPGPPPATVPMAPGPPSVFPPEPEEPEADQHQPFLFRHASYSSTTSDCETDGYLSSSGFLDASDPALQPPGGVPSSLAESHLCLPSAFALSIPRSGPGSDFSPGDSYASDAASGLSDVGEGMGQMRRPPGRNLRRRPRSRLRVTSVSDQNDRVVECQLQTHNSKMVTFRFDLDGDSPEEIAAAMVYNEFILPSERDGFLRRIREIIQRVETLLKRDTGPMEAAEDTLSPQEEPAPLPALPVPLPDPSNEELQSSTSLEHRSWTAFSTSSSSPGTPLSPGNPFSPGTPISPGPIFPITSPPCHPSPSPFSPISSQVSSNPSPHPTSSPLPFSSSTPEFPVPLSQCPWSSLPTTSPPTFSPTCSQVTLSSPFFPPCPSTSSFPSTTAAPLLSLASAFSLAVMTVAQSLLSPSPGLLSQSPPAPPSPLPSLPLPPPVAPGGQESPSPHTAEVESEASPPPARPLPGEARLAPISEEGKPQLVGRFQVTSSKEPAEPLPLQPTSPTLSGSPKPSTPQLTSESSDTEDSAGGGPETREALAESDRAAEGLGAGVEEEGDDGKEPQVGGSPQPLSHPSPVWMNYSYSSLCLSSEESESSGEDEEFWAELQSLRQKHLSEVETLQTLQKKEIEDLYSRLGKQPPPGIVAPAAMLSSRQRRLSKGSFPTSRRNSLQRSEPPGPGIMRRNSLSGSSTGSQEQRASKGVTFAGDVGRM
Outline: as §1

[17] = target: T17, 384 kinases from the human genome (Homo sapiens, UniProt P17612); conditions: kinase PKAC-alpha (Entrez PRKACA)
T17 construct: purchased Eurofin/DiscoverX
Outline: as §1

[18] = target: T18, 384 kinases from the human genome (Homo sapiens, UniProt Q16513); conditions: kinase PKN2 (Entrez PKN2)
T18 construct: purchased Eurofin/DiscoverX
Outline: as §1

[19] = target: T19, 384 kinases from the human genome (Homo sapiens, UniProt Q8TDR2); conditions: kinase STK35 (Entrez STK35)
T19 construct: purchased Eurofin/DiscoverX
Outline: as §1

[20] = target: T20, 384 kinases from the human genome (Homo sapiens, UniProt Q14164); conditions: kinase IKK-epsilon (Entrez IKBKE)
T20 construct: purchased Eurofin/DiscoverX
Outline: as §1

[21] = target: T21, 384 kinases from the human genome (Homo sapiens, UniProt P19784); conditions: kinase CSNK2A2 (Entrez CSNK2A2)
T21 construct: purchased Eurofin/DiscoverX
Outline: as §1

[22] = target: T22, 384 kinases from the human genome (Homo sapiens, UniProt Q2M2I8)
T22 construct: purchased Eurofin/DiscoverX
T22 sequence (Q2M2I8 whole entry): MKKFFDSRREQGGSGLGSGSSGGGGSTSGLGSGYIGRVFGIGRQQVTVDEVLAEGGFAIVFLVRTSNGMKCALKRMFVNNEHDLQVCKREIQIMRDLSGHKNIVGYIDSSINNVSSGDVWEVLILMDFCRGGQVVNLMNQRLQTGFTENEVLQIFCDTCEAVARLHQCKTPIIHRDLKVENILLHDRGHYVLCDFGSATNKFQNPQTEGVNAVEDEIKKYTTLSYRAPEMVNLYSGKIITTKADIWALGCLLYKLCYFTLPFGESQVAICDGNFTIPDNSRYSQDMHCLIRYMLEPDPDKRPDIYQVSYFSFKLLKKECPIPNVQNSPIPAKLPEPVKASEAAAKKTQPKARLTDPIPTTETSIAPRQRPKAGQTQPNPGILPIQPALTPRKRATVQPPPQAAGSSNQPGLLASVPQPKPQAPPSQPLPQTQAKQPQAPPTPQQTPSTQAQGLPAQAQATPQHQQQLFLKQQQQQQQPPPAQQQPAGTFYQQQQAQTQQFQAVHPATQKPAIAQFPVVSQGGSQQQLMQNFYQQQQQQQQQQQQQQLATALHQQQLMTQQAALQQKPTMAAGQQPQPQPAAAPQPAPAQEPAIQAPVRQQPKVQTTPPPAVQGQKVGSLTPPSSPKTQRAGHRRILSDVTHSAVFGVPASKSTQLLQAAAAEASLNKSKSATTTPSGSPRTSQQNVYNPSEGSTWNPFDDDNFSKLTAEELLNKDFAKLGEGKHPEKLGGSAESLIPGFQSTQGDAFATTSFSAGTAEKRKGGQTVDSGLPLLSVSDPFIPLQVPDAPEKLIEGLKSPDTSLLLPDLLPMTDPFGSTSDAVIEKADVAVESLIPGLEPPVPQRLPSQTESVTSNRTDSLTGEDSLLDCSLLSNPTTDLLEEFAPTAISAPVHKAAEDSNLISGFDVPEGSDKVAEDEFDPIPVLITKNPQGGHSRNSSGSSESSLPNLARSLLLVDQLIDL
Outline: as §1

[23] = target: T23, 384 kinases from the human genome (Homo sapiens, UniProt Q13554); conditions: kinase CAMK2B (Entrez CAMK2B)
T23 construct: purchased Eurofin/DiscoverX
T23 sequence (Q13554 whole entry): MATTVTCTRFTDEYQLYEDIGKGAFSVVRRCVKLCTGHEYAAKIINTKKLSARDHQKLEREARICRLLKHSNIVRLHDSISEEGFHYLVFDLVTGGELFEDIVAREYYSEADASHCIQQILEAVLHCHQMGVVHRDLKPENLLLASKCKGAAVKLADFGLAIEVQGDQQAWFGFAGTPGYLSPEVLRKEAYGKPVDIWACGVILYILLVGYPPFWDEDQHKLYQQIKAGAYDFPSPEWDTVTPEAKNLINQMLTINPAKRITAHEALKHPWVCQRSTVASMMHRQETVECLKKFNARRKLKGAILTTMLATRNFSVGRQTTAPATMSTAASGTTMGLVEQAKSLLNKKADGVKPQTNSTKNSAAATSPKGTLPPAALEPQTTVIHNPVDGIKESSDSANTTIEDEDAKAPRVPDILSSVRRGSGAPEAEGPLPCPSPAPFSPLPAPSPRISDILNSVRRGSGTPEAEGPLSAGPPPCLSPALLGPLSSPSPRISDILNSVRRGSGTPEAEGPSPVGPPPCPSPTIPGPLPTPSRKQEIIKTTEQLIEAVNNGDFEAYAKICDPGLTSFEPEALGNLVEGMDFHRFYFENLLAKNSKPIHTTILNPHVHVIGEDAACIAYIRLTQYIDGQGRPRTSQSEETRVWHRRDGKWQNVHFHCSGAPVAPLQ
Outline: as §1

[24] = target: T24, 384 kinases from the human genome (Homo sapiens, UniProt Q96D53); conditions: kinase ADCK4 (Entrez ADCK4)
T24 construct: purchased Eurofin/DiscoverX
T24 sequence (Q96D53 whole entry): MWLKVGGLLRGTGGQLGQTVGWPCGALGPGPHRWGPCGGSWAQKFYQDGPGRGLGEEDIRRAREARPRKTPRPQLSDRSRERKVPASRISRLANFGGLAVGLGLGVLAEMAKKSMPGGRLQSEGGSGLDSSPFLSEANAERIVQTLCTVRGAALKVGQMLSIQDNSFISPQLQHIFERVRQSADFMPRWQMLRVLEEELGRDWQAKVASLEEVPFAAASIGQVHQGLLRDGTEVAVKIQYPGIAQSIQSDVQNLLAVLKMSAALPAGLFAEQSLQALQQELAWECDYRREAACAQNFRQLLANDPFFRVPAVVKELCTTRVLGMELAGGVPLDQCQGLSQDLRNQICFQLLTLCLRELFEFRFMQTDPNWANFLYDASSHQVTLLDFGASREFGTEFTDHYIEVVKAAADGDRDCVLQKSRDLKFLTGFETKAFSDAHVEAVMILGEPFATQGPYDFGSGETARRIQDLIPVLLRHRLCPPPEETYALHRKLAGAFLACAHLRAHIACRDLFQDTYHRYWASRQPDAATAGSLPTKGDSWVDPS
Outline: as §1

[25] = target: T25, 384 kinases from the human genome (Homo sapiens, UniProt P27448); conditions: kinase MARK3 (Entrez MARK3)
T25 construct: purchased Eurofin/DiscoverX
Outline: as §1

[26] = target: T26, 384 kinases from the human genome (Homo sapiens, UniProt Q09013); conditions: kinase DMPK (Entrez DMPK)
T26 construct: purchased Eurofin/DiscoverX
Outline: as §1

## CC(C)C(=O)N1CCN(c2ccc(NC(=O)c3cc4ccccc4o3)cc2Cl)CC1 [Compound 21]
[1]
  Percent Control: 92%
[2]
  Percent Control: 100%
[3]
  Percent Control: 100%
[4]
  Percent Control: 94%
[5]
  Percent Control: 98%
[6]
  Percent Control: 94%
[7]
  Percent Control: 99%
[8]
  Percent Control: 100%
[9]
  Percent Control: 99%
[10]
  Percent Control: 79%
[11]
  Percent Control: 86%
[12]
  Percent Control: 100%
[13]
  Percent Control: 100%
[14]
  Percent Control: 96%
[15]; 10 µM of 21, compared to DMSO (100%)
  PDGFRB binding to its ligand affected: more than 90%
[15]; kinase PDGFRB (Entrez PDGFRB)
  Percent Control: 2.6%
[16]
  Percent Control: 100%
[17]
  Percent Control: 97%
[18]
  Percent Control: 100%
[19]
  Percent Control: 100%
[20]
  Percent Control: 100%
[21]
  Percent Control: 92%
[22]; 10 µM of 21
  binding to AAK1: failed to bind
[22]; kinase AAK1 (Entrez AAK1)
  Percent Control: 100%
[23]
  Percent Control: 100%
[24]
  Percent Control: 77%
[25]
  Percent Control: 100%
[26]
  Percent Control: 100%
